Data: patent publication US20090093460A1, “Compositions” (AstraZeneca AB, priority 2003, published 2009)

How the values were obtained:
[1] = molecular target: T1, Adrenergic α2A (Homo sapiens, UniProt P08913); experiment: Radioligand binding Adrenergic α2A
T1 sequence (P08913 1-465): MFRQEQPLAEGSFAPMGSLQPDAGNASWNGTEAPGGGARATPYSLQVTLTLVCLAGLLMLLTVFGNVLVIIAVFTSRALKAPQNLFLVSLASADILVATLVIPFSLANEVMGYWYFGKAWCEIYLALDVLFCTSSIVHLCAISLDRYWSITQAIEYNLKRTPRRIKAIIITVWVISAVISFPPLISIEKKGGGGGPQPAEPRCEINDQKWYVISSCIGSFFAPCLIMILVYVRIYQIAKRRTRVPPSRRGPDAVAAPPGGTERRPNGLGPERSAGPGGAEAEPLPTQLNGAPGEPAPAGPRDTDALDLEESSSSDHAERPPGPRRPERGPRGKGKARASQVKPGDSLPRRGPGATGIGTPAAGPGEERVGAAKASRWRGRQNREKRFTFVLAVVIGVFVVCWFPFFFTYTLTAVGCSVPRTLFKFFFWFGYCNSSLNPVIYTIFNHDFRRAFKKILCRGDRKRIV

[2] = molecular target: Adrenergic α1* Non-Selective; experiment: Radioligand binding 203500 Adrenergic α1* Non-Selective; set-up: species or system rat
Description: Receptor binding methods, α-adrenergic nonselective, are provided below.

[3] = Oral bioavailability in Sprague-Dawley rats; assay type: in vivo; settings: rat, plasma, 30 μmol/kg
Protocol: 11-piperazin-1-yldibenzo[b,f][1,4]thiazepine was administered to 3 Sprague-Dawley rats each either intravenously or orally at doses of 10 μmol/kg or 30 μmol/kg, respectively, in a sodium citrate (pH 3) formulation. Blood samples were removed from each animal at several time points after dosing. The blood samples were centrifuged to produce plasma. Aliquots of each plasma sample were analyzed by an HPLC method with mass spectrometric detection to measure 11-piperazin-1-yldibenzo[b,f][1,4]thiazepine. The area under the plasma concentration curves (AUC) constructed from the sample measurements following iv or po administration were used to calculate oral biovailability.

[4] = tested on: rats; experiment: Geller-Seifter conflict test; assay type: in vivo, rat
Protocol: Anxiolytic activity of 11-piperazin-1-yldibenzo[b,f][1,4]thiazepine was tested in rats according to the Geller-Seifter conflict test. Efficacy results are presented in Table 1 and plasma levels in satellite exposure animals at 0.25 hours after administration are provided in Table 2.
Subjects: 30 Male Long Evans rats were used. Subjects weighed 350-450 g at the time of testing, and were food restricted to 85% of free feeding weight by post session feeding with approximately 15 g of standard rat chow per day. All animals had free access to water except during experimental testing. Subjects were individually housed throughout the course of the experiment under a 12 hour light/dark cycle.
Apparatus: Standard 2-lever operant chambers were used (Med Associates). The chambers were fitted with two retractable response levers and a stimulus lamp over each of the 2 levers. A pellet food dispenser delivered 45 mg food pellets, (Bio Serv) to a cup located inside of the chamber below and between the 2 response levers. A lamp at the top and back of the chamber served as houselights. […] All events in the chambers were controlled and monitored by a microprocessor. […]
Several doses were tested on a given day in different subjects. […] The dependent variables recorded were the rate of responding in unpunished and punished components (total responses/total time under the component), the number of shocks delivered. […]

[5] = molecular target: T2, 5-HT2A receptors (Homo sapiens, UniProt P28223); experiment: PET scans of primate subjects, 5-HT2A occupancy; assay type: in vivo; settings: preliminary PET scans
T2 construct: from tissue; host or cells: brain of living primate subjects (PET)
T2 sequence (P28223 whole entry): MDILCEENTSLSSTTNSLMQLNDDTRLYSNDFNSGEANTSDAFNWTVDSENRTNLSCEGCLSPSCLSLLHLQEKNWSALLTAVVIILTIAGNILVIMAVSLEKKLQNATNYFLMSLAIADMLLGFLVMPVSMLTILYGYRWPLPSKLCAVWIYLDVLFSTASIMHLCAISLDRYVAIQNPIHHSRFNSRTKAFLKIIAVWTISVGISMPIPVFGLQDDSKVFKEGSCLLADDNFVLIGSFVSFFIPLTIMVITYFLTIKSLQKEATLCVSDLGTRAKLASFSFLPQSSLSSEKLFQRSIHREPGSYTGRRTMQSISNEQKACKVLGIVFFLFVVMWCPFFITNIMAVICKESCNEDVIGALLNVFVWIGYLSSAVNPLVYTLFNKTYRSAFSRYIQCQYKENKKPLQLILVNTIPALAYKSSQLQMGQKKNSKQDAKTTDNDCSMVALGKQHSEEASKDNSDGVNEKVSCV
Description: (§1) The compound of Formula I is a dibenzothiazepine that has shown antidopaminergic activity.

[6] = molecular target: T3, 5-HT1A receptors (Homo sapiens, UniProt P08908); experiment: PET scans of primate subjects, 5-HT1A occupancy; assay type: in vivo; set-up: from tissue; host or cells: brain of living primate subjects (PET); settings: preliminary PET scans
T3 sequence (P08908 1-422): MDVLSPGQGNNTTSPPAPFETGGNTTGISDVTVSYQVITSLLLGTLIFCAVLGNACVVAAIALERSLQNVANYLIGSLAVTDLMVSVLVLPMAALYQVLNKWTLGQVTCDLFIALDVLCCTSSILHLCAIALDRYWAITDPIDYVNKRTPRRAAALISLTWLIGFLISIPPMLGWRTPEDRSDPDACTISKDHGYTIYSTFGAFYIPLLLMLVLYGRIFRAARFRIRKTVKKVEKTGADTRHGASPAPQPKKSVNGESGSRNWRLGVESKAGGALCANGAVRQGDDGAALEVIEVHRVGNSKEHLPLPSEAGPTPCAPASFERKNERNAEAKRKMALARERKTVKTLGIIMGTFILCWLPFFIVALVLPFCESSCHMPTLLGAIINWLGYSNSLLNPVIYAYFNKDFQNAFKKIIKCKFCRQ
Description: as §1

Compound: c1ccc2c(c1)N=C(N1CCNCC1)c1ccccc1S2 [11-piperazin-1-yldibenzo[b,f][1,4]thiazepine]
- IC50 [1]: 2820 ± 275 nM
- Ki [1]: 1060 ± 103 nM
- n [1]: 0.969 ± 0.012
- inhibition at 3 µM ([1]; 3 μM): 51%
- IC50 [2]: 69.3 nM
- Ki [2]: 37.2 nM
- % INH. ([2]; 0.1 μM): 61%
- bioavailability [3]: 11%
- rates of responding in the punished component ([4]; doses of 2, 5, and 10 mg/kg s.c.): Significant increases
- Inactive dose ([4]; rats, 15 minute pre-treatment): 1 mg/kg s.c.
- receptor occupancy by PET [5]: occupies
- receptor occupancy by PET [6]: occupies
